Test results: paper PMC8132061, “An Insulin‐Inspired Supramolecular Hydrogel for Prevention of Type 1 Diabetes” (Advanced Science, 2021)
Non-standard residues stand in square brackets, D forms with d. Residues, ends and D or L forms follow the SMILES beside them. *: point of attachment. Acetyl(2-naphthyl) = O=C(Cc1ccc2ccccc2c1)*

Legend:
[1] = In vivo retention of Cy5.5-labeled hydrogel/formula (fluorescence imaging); conditions: 50 µL subcutaneous inguinal, 8-weeks old female NOD mice, imaged every 6 h at 640 nm excitation
Method: 8‐weeks old female NOD mice were subcutaneously injected with a volume of 50 µL Cy5.5‐labeled peptide hydrogels/formulas in inguinal region. In vivo peptide retention was observed every 6 h at 640 nm excitation wavelength via Cri Maestro In‐vivo imaging System (Xenogen, IVIS Lumina II).

[2] = tested on: bone marrow derived dendritic cells (BMDCs); parameters: method as in PMID 31244959; conditions: ref 16b; cited from earlier work
[3] = tested on: T1D onset in NOD mice; test: T1D prevention study, incidence of T1D onset; format: in vivo, female NOD mice; conditions: 1 mg mL^-1, 50-70 µL s.c. once a week for 5 weeks from 3 weeks of age
Method: Female NOD mice were inoculated with different hydrogel formulations 3 weeks of age. PBS and aluminum hydroxide+Ins2_9‐23 (Alum+Ins2_9‐23) were used as negative and positive controls, respectively. Random blood glucose (RBG) levels were measured weekly and mice with RBG levels above 11.1 mmol L^−1 for more than 3 consecutive weeks were considered “diabetic” in the present study.

[4] = Gelation test and TEM of hydrogels/formulas; format: physicochemical; conditions: after heating-cooling
Description: We first tested the gelation properties of Nap‐G^dF^dF^dY and controlled peptides (Nap‐GFFY, Nap‐^dF^dF, Nap‐G^dF^dA^dY, and Ac‐G^dF^dF^dY). […] The nanostructures of these hydrogels and solutions were subsequently observed by transmission electron microscopy (TEM). […] The diameter of its nanofiber was about 12 nm. […] Insulin mimicking requires a specific conformation of the self‐assembled peptide Nap‐G^dF^dF^dY for in vivo performance, indicating a secondary structure examination is required. We obtained the circular dichroism (CD) spectrum of peptide within the hydrogel at 37 °C.
(§1) All peptides in the study were synthesized by standard solid‐phase peptide synthesis (SPPS), and purified by high performance liquid chromatography (HPLC). Hydrogels/formulas were prepared by heating–cooling method. Negative staining technique was used to observe the nanostructures of materials by using TEM (HITACHI HT7700 Exalens). CD spectrum were measured by a BioLogic (MOS‐450) system. Rheology test was carried out on an AR 2000ex system (TA instrument). The release behaviors of peptides was analyzed by liquid chromatograph (LC2020). Microscale thermophoresis and analysis of binding force was performed by using the Monolith NT.115 system (NanoTemper Technologies, Germany). All samples were tested at the temperature of 37 °C.

[5] = Peptide release from hydrogel/solution; format: physicochemical; conditions: within 12 h, 37 °C, LC (LC2020)
Method: as §1

[6] = tested on: pancreatic islets; test: Immunofluorescence of pancreatic islets (morphology, immune cell infiltration), prevention study; format: in vivo, NOD mice
Method: Female NOD mice (3 weeks of age) were immunized subcutaneously under the front left leg with Nap‐G^dF^dF^dY, Nap‐GFFY, Nap‐G^dF^dA^dY, Nap‐^dF^dF, Ac‐G^dF^dF^dY (1 mg mL^−1, 50–70 µL), and Alum+Ins2_9‐23 (50 µg) and endotoxin‐free PBS once a week for 5 consecutive weeks (from 3‐weeks old to 7‐weeks old) and maintained in specific pathogen free facilities for up to 36 or 52 weeks (n = 3–10 per group). Random plasma glucose level and body weight of all mice were noted weekly from week 8 till the end of experiment with an OneTouch Ultra blood glucose meter (Lifescan Inc., Milpitas, CA, USA). Mice were classified as diabetic if random plasma glucose level exceeded 11.1 mmol L^−1 for 3 consecutive weeks. IPGTT was performed in all treatment groups at week 14, week 20, and week 36. Serum samples were obtained from all mice at the age of week 14, week 20, and week 36 for cytokine chip microarray, which was performed by the Beijing Genomics Institute. Serum insulin level was determined in 10 µL serum samples of each animal using a mouse insulin ELISA kit according to the manufacture's instruction.
Immunofluorescence staining was performed following procedures that were previously detailed.^[ ^18b,c ^] Pancreas were extracted and paraffin‐embedded before being sectioned (5 µm width) onto microscopic slides. For immunofluorescence staining, antigen retrieval was performed followed by exposure to primary antibodies at 4 ℃ overnight. The pancreas sections were then washed with PBS and staining with secondary antibody for 1–2 h at room temperature and examined under a fluorescence microscope (Olympus BX3‐25ND25, Japan).

[7] = target: human insulin receptor protein (Homo sapiens, UniProt P06213); test: Microscale thermophoresis (MST) binding to insulin receptor; conditions: Monolith NT.115, Recombinant Human Insulin R/CD220 (aa 28-944), 37 °C, read-out: dissociation constant (K D) to human insulin receptor protein
Method: 2‐Cl‐trityl chloride resin (1.1 mmol g^−1) was obtained from Nankai University resin Co., Ltd. Fmoc‐amino acids and o‐benzotriazol‐1‐yl‐N,N,N′,N′‐tetramethyluronium hexafluorophosphate (HBTU) were acquired from GL Biochem (Shanghai). Hydogels were prepared and respective endotoxin levels of formula were tested as previously reported.^[ ^23 , ^24 ^] Ins2_9‐23 peptide (SHLVEALYLVCGERGR; endotoxins <1 EU mg^−1) was supplied by Bankpeptide (Hefei, China). The BD Pharmingen FoxP3 staining kit was from (BD Biosciences, Beijing, China). Aluminum hydroxide was purchased from Sigma‐Aldrich (Shanghai, China). Antibodies used for flow cytometry analysis were purchased from eBioscience (CA, USA) and antibodies used for immunofluorescence staining were obtained from Abcam (Shanghai, China). Cytokine chip microarray was performed by Beijing Genomics Institute (Beijing, China). Recombinant Human Insulin R/CD220 (aa 28‐944) Protein was ordered from R&D Systems (Shanghai, China). Mouse Insulin EZRMI‐13 ELISA kit was from Millipore (Merck, UK). […]
All peptides in the study were synthesized by standard solid‐phase peptide synthesis (SPPS), and purified by high performance liquid chromatography (HPLC). […] CD spectrum were measured by a BioLogic (MOS‐450) system. […] The release behaviors of peptides was analyzed by liquid chromatograph (LC2020). […]

[8] = tested on: OVA-induced immune responses; conditions: ref 16a; cited from earlier work
Description: Poor tolerance induction was also observed from the Nap‐GFFY group (Figure 2A, red dotted line; 60% T1D onset). […] In the present study, when both isoforms of Nap‐GFFY were used, the lack of stability and adjuvant potency of L‐GFFY resulted both in reduced antigenic and adjuvant impact, rendering the Nap‐GFFY formulation less eff ... || Supramolecular peptide hydrogel has, in the past 5 years, been extensively investigated as immune adjuvant to improve efficacy of antigen presentation. By using peptide hydrogel, which functions both as antigen depot and immune adjuvant, it eliminates the likely protein‐induced hypersensitivity in vivo and the need for additional adjuvant^[ ^15 , ^37 ^] […] Because the peptide sequence GFFY is conserved in multiple self‐antigens of autoimmune diabetes, we now have assessed its poten ...

in vivo retention time (fluorescence signal) [1]	Kd [7] [µM]	Compound	CD40/CD80 expression on BMDCs [2]	TNF-α in cell culture supernatant of BMDCs [2]	T1D onset [3] [%]	gelation property [4]	peptide released from gel [5]	islet immune cell infiltration ([6]; immunofluorescence, prevention study)	immune cell infiltration per islet over Nap-G^dF^dF^dY ([6]; over Nap-G^dF^dF^dY, p < 0.01) [% over Nap-GdFdFdY]	average % of immune cell infiltration per islet ([6]; per islet, mean ± s.e.m., n = 5-20) [% per islet]	in vivo stability vs L-isoform Nap-GFFY [8]
about 30 h	–	O=C(Cc1ccc2ccccc2c1)N[C@H](Cc1ccccc1)C(=O)N[C@H](Cc1ccccc1)C(=O)O [Nap‐^dF^dF]	–	–	–	–	–	–	–	–	–
about 36 h	53.9	O=C(Cc1ccc2ccccc2c1)NCC(=O)N[C@H](Cc1ccccc1)C(=O)N[C@H](Cc1ccccc1)C(=O)N[C@H](Cc1ccc(O)cc1)C(=O)O [Nap‐G^dF^dF^dY] ({Acetyl(2-naphthyl)}-G[dF][dF][dY]-OH)	–	–	–	–	–	–	–	–	preferentially more stable in vivo

Compound	in vivo retention time (fluorescence signal) [1]	Kd [7] [µM]	CD40/CD80 expression on BMDCs [2]	TNF-α in cell culture supernatant of BMDCs [2]	T1D onset [3] [%]	gelation property [4]	peptide released from gel [5]	islet immune cell infiltration ([6]; immunofluorescence, prevention study)	immune cell infiltration per islet over Nap-G^dF^dF^dY ([6]; over Nap-G^dF^dF^dY, p < 0.01) [% over Nap-GdFdFdY]	average % of immune cell infiltration per islet ([6]; per islet, mean ± s.e.m., n = 5-20) [% per islet]	in vivo stability vs L-isoform Nap-GFFY [8]
Nap‐GFFY	about 30 h	–	significant increase expression of CD40/CD80	elevated	60	could swiftly form transparent hydrogels	about 40%	substantial immune cell infiltration	248 ± 25	38.5 ± 3.8	–
